Literature values as cited in patent US20110195928A1, “Administration of Copper to an Animal” (priority 2001, published 2011).

Conditions: general statement of the description

- Solubility in water: insoluble
Substance: copper edtate [edtates]
